Reference: patent US8551960B2, “Uses of D-mannopyranose derivatives activating angiogenesis” (Centre National de la Recherche Scientifique, priority 2008, dated 2013)

System: chick embryo chorioallantoic membrane (CAM)
Experiment: chick embryo chorioallantoic membrane (CAM) angiogenesis study
Assay type: in vivo, chick (Leghorn white breed)
Details: nitrocellulose filter disk soaked with 20 μl of 6 mg/ml in PBS placed on CAM on 7th day; observed on 12th day; estimated visually; FIG. 1
Experimental: This study was conducted on chick embryos according to the method described by Ribatti D. et al., Nat. Protoc., 2006, 1(1), 85-91 with some minor modifications.
This study was conducted on chick embryo chorioallantoic membrane (CAM). The CAM is an extraembryonic membrane formed on the 4th day of incubation by fusion of the chorion and allantois. It enables gas exchanges to take place between the chick embryo and the extraembryonic environment until birth. This CAM is composed of a very thick capillary network which forms a continuous surface in direct contact with the shell. Rapid capillary proliferation of this membrane continues until the 11th day; the mitotic index then decreases rapidly and the vascular system reaches its final arrangement on the 18th day, just before birth (hatching on the 21st day).
Fertilized chicken eggs of the Leghorn white breed were placed in an incubator at the start of embryogenesis, where they were kept under constant humidity at a temperature of 38° C. On the second day of incubation, a window was made in the shell after removing 2 to 3 ml of albumin in order to detach the CAM from the shell. The window was then sealed with adhesive tape and the egg was put back in the incubator to continue its development until the day of the experiment. On the 7th day, pieces of inert synthetic polymers (nitrocellulose filter disks 0.4 cm in diameter) were soaked with 20 μl of each of the solutions of the test compounds (6 mg/ml in PBS) and were then positioned on the CAM. The effect of the test substances on angiogenesis was then observed on the 12th day and the quantitative evaluation of the pro- or antiangiogenic response was estimated visually.

| Compound | effect on vascularization of the chick embryos (pro- or antiangiogenic response) |
| --- | --- |
| COC1O[C@H](COP(=O)([O-])[O-])[C@@H](O)[C@H](O)[C@@H]1O.[Na+].[Na+] (stereo partly drawn) [DM1, methyl(disodium)-6-phosphate-D-manno-pyranoside] | inhibitory effect on vascularization |
| COC1O[C@H](CC(C(=O)O)C(=O)O)[C@@H](O)[C@H](O)[C@@H]1O (stereo partly drawn) [DM3, methyl 6-deoxy-6-malonate-D-mannopyranoside] | inhibitory effect on vascularization |
| methyl 6,7-dideoxy-7-sulfonato-D-manno-heptopyranoside [DM2] | inhibitory effect on vascularization |
| CO[C@H]1O[C@H](CCN)[C@@H](O)[C@H](O)[C@@H]1O [Compound I-1, Methyl 7-amino-6,7-dideoxy-α-D-manno-heptopyranoside] | activating effect on vascularization |
| COC1O[C@H](CC(=O)O)[C@@H](O)[C@H](O)[C@@H]1O (stereo partly drawn) [DM4, (methyl 6,7-dideoxy-D-manno-heptopyranoside)uronic acid] | inhibitory effect on vascularization |
| COC1O[C@H](CCP(=O)(O)O)[C@@H](O)[C@H](O)[C@@H]1O (stereo partly drawn) [Compound I-4, methyl 7-phosphonato-6,7-dideoxy-D-manno-heptopyranoside] | activating effect on vascularization |
| CO[C@H]1O[C@H](CN=[N+]=[N-])[C@@H](O)[C@H](O)[C@@H]1O [Compound I-2, Methyl 6-Azido-6-Deoxy-α-D-Mannopyranoside] | activating effect on vascularization |
